From US20230312601A1, “THIAZOLO[5,4-B]PYRIDINE MALT-1 INHIBITORS” (AbbVie Inc., priority 2022, published 2023)

Columns and labels:
human MALT-1 protein = human MALT-1 protein (Homo sapiens (Human), UniProt Q9UDY8); experiment: MALT-1 Biochemical Assay (Quench-FRET enzyme assay); details: human MALT-1 6 nM, substrate 2 μM, 40 min preincubation
Source text: A Quenched Fluorescence Resonance Energy Transfer (Quench-FRET) enzyme assay was used to test the ability of exemplary MALT-1 inhibitors Example 1 to Example 39 to inhibit the cleavage of a MALT1 specific quenched fluorescent substrate of sequence [TAMRA-PEG2-Leu-Val-Ser-Arg-Gly-Ala-Ala-Ser-PEG2-K(QSY7) by human MALT-1 protein; where TAMRA is 6-carboxytetramethylrhodamine, PEG2 is 2-(2-(2-aminoethoxy)ethoxyamide linker, QSY7 is a non-fluorescent quenching dye (Thermo-Fisher catalog #Q10193). The assay was performed by pre-dispensing compounds into 384 well Proxiplates™ (PE 6008289). Human MALT-1 (6 nM) was prepared using the assay buffer (25 mM HEPES pH 7.5, 1 mM ethylenediaminetetraacetic acid, 0.8 M sodium citrate, 0.005% Bovine serum albumin (BSA), 2 mM dithiothreitol (DTT)) and added to the compound plates. The plates were incubated 40 minutes at room temperature. The reaction was carried out by adding the substrate (2 μM) to the plates and incubating for 60 minutes at room temperature. A fluorescence readout was then measured using a PE EnVision® reader (Ex.535/Em.590). […] EC50 is defined as the half maximal effective concentration of compound to inhibit MALT-1 protease activity.

CYP 3A4 mRNA = experiment: CYP3A4 Induction Assay (qPCR, human hepatocytes); format: in vitro ADME; details: 10 μM compound, relative to rifampicin 10 μM
Description: (§1) CYP induction by compounds of the Examples was evaluated in vitro by determining the expression levels of CYP 3A4 mRNA using the qPCR (quantitative polymerase chain reaction) assay. On day one, cryopreserved human hepatocytes were thawed in prewarmed (37° C.) thawing medium (cryopreserved hepatocyte recovery medium, Gibco™ CM 7000; Thermo Fisher Scientific), centrifuged (1000 g for 10 minutes) and resuspended in plating medium (Gibco™ CM3000—Williams Medium E supplemented with hepatocytes plating supplement pak-serum containing; Thermo Fisher Scientific). Cells were counted by trypan blue exclusion using a hemocytometer and adjusted to a cell density of […]. Thereafter, […] of cell suspension was aliquoted per well in a 96-well plate, resulting in 60,000 cells/well. Plates were shaken in the north-south and east-west direction during plating. Plated cells were incubated at 37° C/5% CO2 in a humidified cell culture incubator for 4-6 hours. During this time, incubation medium (Gibco™ CM4000, cell maintenance supplement pack; Thermo Fisher Scientific) was mixed with Gibco™ Geltrex™ (Thermo Fischer Scientific) at the appropriate GeltrexTM protein concentration. Following recovery, medium was removed from cells and replaced with freshly prepared incubation medium. Cells were incubated overnight in a cell culture incubator (37° C./5% CO2).
(§2) The next day the incubation medium was prepared by combining the hepatocyte maintenance supplement pack with Williams Medium E. The medium was warmed to 37° C. 1000× dimethyl sulfoxide compound stocks of the compounds of the Examples were prepared to the desired concentrations. 10 mM compound stocks in dimethyl sulfoxide were diluted (1 μL to 1 mL CM4000; final concentration=10 μM). Overlay medium was aspirated and […] dose solution added to the desired labeled 96 well plate. Cells were then dosed with compound (10 μM) and prototypical induces at the targeted concentrations either 50 i.tM for omeprazole (Sigma 0104/lotBCBF-2161V) or 10 i.tM for rifampicin (Sigma R3501/lot 011M1159V). A negative control, probenecid, was dosed at 10 i.tM (Sigma P8761/lot 013K0148).
(§3) On day 3, RNA isolation was performed. All surfaces were cleaned using RNase RNAy. Total RNA was isolated using MagMAX Express 96 RNA Isolation System (Life Technologies, AM1830). Briefly, hepatocytes were washed once with 1X PBS (phosphate buffered saline). 145 μL of RNA Lysis Buffer was added to each well and each well was mixed by pipetting several times. Lysate was then transferred to a well of a 96 well Binding Plate. Samples were then mixed with 20 μL magnetic beads coming from the kit. RNA bound to beads was then captured by the magnetic tip manifold and beads were washed with the wash solution. Samples were treated with TURBOTmDNase. After TURBOTmDNase treatment, RNA was rebound to beads and washed with the provided wash buffer an additional two times. Beads are then dried, and RNA was eluted with 50 μL elution buffer. The eluted mRNA was transferred from the wells to RNase-free sealable microtiter plates and stored at -80° C. until use.
(§4) Following mRNA isolation, reverse transcription (RT) reactions were performed using TaqmanTm Reverse Transcription Reagents (ThermoFisher Scientific). RT master mix was prepared by mixing 2.5 μL 10× RT buffer, 5.5 μL 25 mM MgCl2, 5μL deoxyNTP mixture, 1.25 50 mM random hexamers, 0.5 μL 2× RNAse inhibitor, 0.625 μL multiscript RTase (50U/μL) and 0.625 μL water. An aliquot of RT mix (16 μL) and an aliquot of mRNA sample (9 μL) was added to each well of a 96-well plate. The SimpliAmpTM Thermal cycler PCR System VIIA7 from Applied Biosystems was used for reverse transcription under the following conditions: segment 1: 25° C. for 10 minutes; segment 2: 45° C. for 45 minutes; segment 3: 95° C. for 5 minutes; and segment 4: 4° C. hold; with 1 cycle for each segment. […]

CYP3A4 mRNA = experiment: CYP3A4 Induction Assay (qPCR, human hepatocytes); format: in vitro ADME; details: cryopreserved human hepatocytes (plated), 10 μM compound, mRNA fold over vehicle (0.1% DMSO)
Description: as §1, §2, §3, §4

OCI-LY3 IL6 = experiment: MALT-1 Cell IL-6 AlphaLISA Assay; format: cell-based; details: Homo sapiens; OCI-LY3 cells, 48 hours incubation; read-out: OCI-LY3 IL6 48 hour Inhibition EC50
Description: The following MALT-1 Cell Interleukin-6 (IL-6) AlphaLISA assay was conducted using a Perkin Elmer® IL-6 AlphaLISA® detection kit (PE AL223). The IL-6 detection assay is a homogeneous immunoassay that detects human IL-6 present in the cell culture medium in the MALT-1 dependent human ABC-DLBCL cell line, OCI-LY3. Compounds were pre-dispensed into Black 384w microtiter plates (Greiner, 781090) from 30 μM to 1.5 nM. Viable OCI-LY3 cells were then seeded on top of compounds at a seeding density of 50,000 cells/mL. Plates were then placed into 37° C. incubators for 48 hours. After 48 hours incubation, 2 μL of cell medium from each well was transferred into white ProxiPlates™ (PE 6008289). A fresh mix of AlphaLISA Acceptor beads (10 μg/mL) and Biotinylated IL-6 Antibody (1 nM) was made in AlphaLISA Immunoassay buffer and added to all wells (4 μL). The plates were incubated for 60 minutes at room temperature. Streptavidin donor beads (40 μg/mL) were prepared using the assay buffer and added to all wells (5 The plates were incubated for 30 minutes at room temperature and read using PE EnVision® reader. Results are shown in Table 3.

Chain of human MALT-1 protein (Q9UDY8 whole entry): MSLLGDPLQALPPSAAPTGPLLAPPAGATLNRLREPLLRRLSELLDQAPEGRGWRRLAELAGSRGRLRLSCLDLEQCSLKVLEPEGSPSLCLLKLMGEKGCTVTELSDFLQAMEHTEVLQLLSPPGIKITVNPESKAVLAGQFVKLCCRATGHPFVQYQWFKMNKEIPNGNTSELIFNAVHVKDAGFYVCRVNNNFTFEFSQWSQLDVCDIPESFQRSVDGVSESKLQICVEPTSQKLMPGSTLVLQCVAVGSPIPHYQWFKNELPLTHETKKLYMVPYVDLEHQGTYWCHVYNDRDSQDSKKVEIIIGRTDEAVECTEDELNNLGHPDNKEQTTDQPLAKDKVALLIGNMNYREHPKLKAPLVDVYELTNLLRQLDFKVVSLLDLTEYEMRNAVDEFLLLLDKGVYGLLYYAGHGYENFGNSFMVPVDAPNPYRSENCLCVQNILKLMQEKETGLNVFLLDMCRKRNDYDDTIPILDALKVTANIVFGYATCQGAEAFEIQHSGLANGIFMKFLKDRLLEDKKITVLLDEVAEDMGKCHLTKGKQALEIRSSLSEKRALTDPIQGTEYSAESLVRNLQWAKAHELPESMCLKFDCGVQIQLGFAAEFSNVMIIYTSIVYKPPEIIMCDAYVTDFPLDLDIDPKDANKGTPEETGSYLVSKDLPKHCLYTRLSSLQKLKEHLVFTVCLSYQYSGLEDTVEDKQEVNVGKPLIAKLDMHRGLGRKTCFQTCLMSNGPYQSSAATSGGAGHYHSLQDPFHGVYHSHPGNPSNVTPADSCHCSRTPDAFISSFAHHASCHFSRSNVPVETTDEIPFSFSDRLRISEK

Row | EC50 (human MALT-1 protein) [nM] | CYP3A4 % of positive control (%) (CYP 3A4 mRNA) | fold induction at 1 day, 10 µM (CYP3A4 mRNA) | EC50 (OCI-LY3 IL6) [nM] | SMILES
1 | 500 | (17) % | 2.45 | 7300 | CO[C@H](C)c1c(Nc2ccc([C@H](N(C)C(=O)C3CCN(C(C)=O)CC3)C(F)(F)F)cc2)cnc2sc(C)nc12 [Example 35, 1-acetyl-N-methyl-N-{(1S)-2,2,2-trifluoro-1-[4-({7-[(1R)-1-methoxyethyl]-2-methyl[1,3]thiazolo [5,4-b]pyridin-6-yl}amino)phenyl]ethyl}piperidine-4-carboxamide]
2 | 60 | (19) % | 2.19 | 210 | CO[C@H](c1c(Nc2ccc([C@@H](C(F)F)N(C)C(=O)C3CCN(C(C)=O)CC3)cc2)cnc2sc(C)nc12)C(F)(F)F [Example 37, 1-acetyl-N-{(1S)-2,2-difluoro-1-[4-({2-methyl-7-[(1R)-2,2,2-trifluoro-1-methoxyethyl][1,3]thiazolo[5,4-b]pyridin-6-yl}amino)phenyl]ethyl}-N-methylpiperidine-4-carboxamide]
3 | 61 | (31) % | 3.65 | 200 | CO[C@H](C)c1c(Nc2ccc([C@@H](C(F)F)N(C)C(=O)C3CCS(=O)(=O)CC3)cc2)cnc2sc(C)nc12 [Example 12, N-{(1S)-2,2-difluoro-1-[4-({7-[(1R)-1-methoxyethyl]-2-methyl[1,3]thiazolo[5,4-b]pyridin-6-yl}amino)phenyl]ethyl}-N-methyl-1,1-dioxo-1λ^6-thiane-4-carboxamide]
4 | 139 | (−4.35) % | 0.677 | 210 | CO[C@@H](C)c1c(Nc2ccc([C@H](N(C)C(=O)C3CCN(C(=O)C(C)(C)O)CC3)C(F)(F)F)cc2)cnc2sc(C)nc12 [Example 23, 1-(2-hydroxy-2-methylpropanoyl)-N-methyl-N-{(1S)-2,2,2-trifluoro-1-[4-({7-[(1S)-1-methoxyethyl]-2-methyl[1,3]thiazolo[5,4-b]pyridin-6-yl}amino)phenyl]ethyl}piperidine-4-carboxamide]

Further lines, the compound ahead of its results:

Row | SMILES | EC50 (human MALT-1 protein) [nM] | CYP3A4 % of positive control (%) (CYP 3A4 mRNA) | fold induction at 1 day, 10 µM (CYP3A4 mRNA) | EC50 (OCI-LY3 IL6) [nM]
5 | CO[C@H](C)c1c(Nc2ccc([C@H](N(C)C(=O)C3CCS(=O)(=O)CC3)C(F)(F)F)cc2)cnc2sc(C)nc12 [Example 8, N-methyl-1,1-dioxo-N-{(1S)-2,2,2-trifluoro-1-[4-({7-[(1R)-1-methoxyethyl]-2-methyl[1,3]thiazolo [5,4-b]pyridin-6-yl}amino)phenyl]ethyl}-1λ^6-thiane-4-carboxamide] | 99 | (9.23) % | 1.53 | 70
6 | CO[C@@H](C)c1c(Nc2ccc([C@H](N(C)C(=O)C3CCN(C(=O)[C@H](O)CO)CC3)C(F)(F)F)cc2)cnc2sc(C)nc12 [Example 27, 1-[(2R)-2,3-dihydroxypropanoyl]-N-methyl-N-{(1S)-2,2,2-trifluoro-1-[4-({7-[(1 S)-1-methoxyethyl]-2-methyl[1,3]thiazolo [5,4-b]pyridin-6-yl}amino)phenyl]ethyl}piperidine-4-carboxamide] | 70 | (7.55) % | 1.47 | 410
7 | CO[C@H](c1c(Nc2ccc([C@@H](C(F)F)N(C)C(=O)C3CCS(=O)(=O)CC3)cc2)cnc2sc(C)nc12)C(F)F [Example 6, N-{(1S)-1-[4-({7-[(1R)-2,2-difluoro-l-methoxyethyl]-2-methyl[1,3]thiazolo[5,4-b]pyridin-6-y1}amino)phenyl]-2,2-difluoroethyl}-N-methyl-1,1-dioxo-1λ^6-thiane-4-carboxamide] | 146 | (5.46) % | 1.4 | 210
8 | CO[C@H](c1c(Nc2ccc([C@H](N(C)C(=O)C3CCN(C(C)=O)CC3)C(F)(F)F)cc2)cnc2sc(C)nc12)C(F)F [Example 18, 1-acetyl-N-{(1,5)-1-[4({7-[(1R)-2,2-difluoro-1-methoxyethyl]-2-methyl[1,3]thiazolo [5,4-b]pyridin-6-yl}amino)phenyl]-2,2,2-trifluoroethyl}-N-methylpiperidine-4-carboxamide] | 284 | (16.5) % | 2.8 | 1150
9 | Cc1nc2c([C@H](C)C(F)(F)F)c(Nc3ccc([C@H](N(C)C(=O)C4CCS(=O)(=O)CC4)C(F)(F)F)cc3)cnc2s1 (single isomer, unassigned) [Example 39] | 83 | (14.9) % | 2.29 | 40
10 | CO[C@H](c1c(Nc2ccc([C@H](N(C)C(=O)C3CCS(=O)(=O)CC3)C(F)(F)F)cc2)cnc2sc(C)nc12)C(F)(F)F [Example 2, N-methyl-1,1-dioxo-N-{(1S)-2,2,2-trifluoro-1-[4-({2-methyl-7-[(1R)-2,2,2-trifluoro-1-methoxyethyl][1,3]thiazolo[5,4-b]pyridin-6-yl}amino)phenyl]ethyl}-1λ^6-thiane-4-carboxamide] | 190 | (2.19) % | 1.13 | 110
11 | CO[C@@H](C)c1c(Nc2ccc([C@@H](C(F)F)N(C)C(=O)C3CCN(C(=O)CO)CC3)cc2)cnc2sc(C)nc12 [Example 28, N-{(1S)-2,2-difluoro-1-[4-({7-[(1S)-1-methoxyethyl]-2-methyl[1,3]thiazolo[5,4-b]pyridin-6-yl}amino)phenyl]ethyl}-1-(hydroxyacetyl)-N-methylpiperidine-4-carboxamide] | 138 | (15.1) % | 2.24 | 420
